Test [1] concerns advanced HCC. Particulars: HCC patients, stated as very low; cited from earlier work.
Test [2] has as its system hepatocellular carcinoma. As to the kind of experiment: Susceptibility assay in sorafenib-administered patients (tumor response according to RECIST). The class given is in vivo. The text has this:
The term “patient having susceptibility to sorafenib treatment” refers to a hepatocellular carcinoma patient showing response according to the sorafenib administration (i.e., tumor response). […] N Engl J Med 359: 378-390.
In the samples derived from 23 sorafenib-administered patients, we analyzed the relationship between the 7 marker gene expression patterns and the sorafenib efficacies. From the hierarchical clustering analysis results of FIG. 5, clustering without primary classification according to BCLC stages was performed according to expression ratio (tumor/non-tumor) of the target molecules; and then the 23 sorafenib-administered patients (i to xxiii) were correspondingly arranged thereto (FIG. 6). […] N Engl J Med 359: 378-390.

As for `CNC(=O)c1cc(Oc2ccc(NC(=O)Nc3ccc(Cl)c(C(F)(F)F)c3)cc2)ccn1` [sorafenib], in test [1], the “response rate of sorafenib” value is on record as “about 3%”. In addition, the “tumor response according to RECIST” value in test [2] (patients viii, x, xi of the 23 sorafenib-administered HCC patients) was “partial response”. Moreover, in test [2] (remaining 20 of the 23 sorafenib-administered HCC patients), the “susceptibility to the sorafenib treatment (RECIST tumor response)” value was “not susceptible”.

Values taken from patent US10017823B2, “Analytical method for increasing susceptibility of molecular targeted therapy in hepatocellular carcinoma” (CBS BIOSCIENCE, CO., LTD, priority 2013, dated 2018).
